Laboratory results reported in patent US20140193827A1 (TEVA PHARMACEUTICAL INDUSTRIES, LTD., priority 2013, published 2014).

Test system: GA-primed murine splenocytes
Assay: ANOVA-based pattern identification method
Assay type: cell-based, mouse
Conditions: DOWN IN generic ONLY; group mean
Excerpt: We sought to identify probes matching specific patterns of expression across experimental conditions using a technique that referred to as the ANOVA-based Pattern Identification Method.
To carry out the analysis in a general manner, we computed the 6 p-values required to do pairwise comparisons of all 4 conditions for all probes using the ANOVA1 function in MATLAB. We then identified sets of probes matching the desired pattern. In the example above, probes were identified as being only affected by PG if their 6 pairwise comparison pvalues matched the following pattern (pGA-PG<0.05, pPG-reference standard<0.05, pPG-Medium<0.05, pGAMedium>0.05, pGA-reference standard>0.05, preference standard-Medium>0.05).

Substance: glatiramer acetate [GA]
- CFL2 expression: 6.246
- CHMP7 expression: 9.491
- CLASP1 expression: 6.034
- COL23A1 expression: 7.128
- COPS3 expression: 6.029
- COPZ1 expression: 6.26
- CPEB2 expression: 5.648
- CRLF1 expression: 5.648
- CTDSPL2 expression: 6.711
- D12WSU95E expression: 9.426
- D130078K04RIK expression: 5.957
- D730033A03RIK expression: 5.894
- D930007M19RIK expression: 6.333
- DEFB14 expression: 5.775
- DLC1 expression: 5.804
- DLG4 expression: 6.044
- DLGAP2 expression: 5.718
- DLX6 expression: 5.766
- DNAJC28 expression: 5.998
- DPPA1 expression: 5.758
- DPPA4 expression: 5.791
- E230016F22RIK expression: 5.685
- E530016P10RIK expression: 6.096
- EEFSEC expression: 5.654
- EG546913 expression: 5.766
- ELF2 expression: 6.475
- EP400 expression: 5.945
- FAAH expression: 5.947
- FABP2 expression: 5.582
- FBXW13 expression: 5.945
- FOXJ3 expression: 8.648
- GADD45GIP1 expression: 5.893
- GALNT1 expression: 7.895
- GALNT6 expression: 5.873
- GAPVD1 expression: 9.838
- GLRA1 expression: 5.643
- GM239 expression: 5.731
- GM438 expression: 5.731
- GM949 expression: 5.662
- GPR12 expression: 5.747
- GPRIN3 expression: 5.628
- GUCY2C expression: 5.74
- HARS expression: 6.212
- HBB-B1 expression: 13.28
- HEATR5B expression: 6.251
- HIRA expression: 5.73
- HIVEP3 expression: 5.796
- HPN expression: 5.793
- HRK expression: 5.72
- HSD362 expression: 5.745
- HSPA1B expression: 5.99
- ID2 expression: 6.095
- IFI204 expression: 5.486
- IGHV14S3—X03573$M12991X03573—IG_HEAVY—VARIABLE_14S3_203 expression: 6.044
- IKZF5 expression: 7.23
- IL1F9 expression: 5.644
- INPP4B expression: 9.329
- INSL6 expression: 9.438
- ITGA6 expression: 6.589
- ITK expression: 10.36
- JRKL expression: 5.816
- K20D4 expression: 5.688
- KAT2B expression: 6.564
- KCNK4 expression: 5.659
- KISS1 expression: 5.727
- KRIT1 expression: 5.684
- KRT32 expression: 6.01
- LCN3 expression: 5.859
- LCP2 expression: 6.557
- LOC209474 expression: 5.679
- LOC229152 expression: 5.605
- LOC236397 expression: 5.838
- LOC236831 expression: 12.43
- LOC268939 expression: 5.99
- LOC279638 expression: 6.022
- LOC333749 expression: 5.939
- LOC381448 expression: 12.91
- LOC381561 expression: 13.17
- LOC381770 expression: 6.112
- LOC382061 expression: 10.4
- LOC382454 expression: 5.761
- LOC384240 expression: 5.807
- LOC384287 expression: 5.612
- LOC385027 expression: 5.666
- LOC385046 expression: 5.695
- LOC630421 expression: 5.995
- LOC637082 expression: 5.805
- LOC674087 expression: 8.034
- LOC675899 expression: 11.9
- LOC100045437 expression: 5.74
- LOC100046343 expression: 8.607
- LOC100046568 expression: 5.888
- LOC100048049 expression: 5.81
- LOC100048616 expression: 6.595
- LOXL3 expression: 5.801
- LPIN2 expression: 7.582
- LRRC18 expression: 5.542
- LRRC39 expression: 5.712
- MACROD2 expression: 5.854
- MADD expression: 5.584
- MAT2A expression: 8.359
- MDM2 expression: 10.46
- MEDI expression: 5.672
- MEX3A expression: 6.913
- MIA3 expression: 5.862
- MIS12 expression: 5.989
- MKI67 expression: 5.673
- MRPS31 expression: 5.671
- MSH3 expression: 6.288
- MYB expression: 5.95
- MYO5C expression: 5.73
- NA112 expression: 8.275
- NANP expression: 5.686
- NARF expression: 7.224
- NCOA2 expression: 5.964
- NDRG1 expression: 7.329
- NIN expression: 8.534
- NIPSNAP1 expression: 9.27
- NT5C expression: 10.09
- NUFIP2 expression: 6.03
- OLFR125 expression: 5.697
- OLFR463 expression: 5.805
- OLFR504 expression: 5.746
- OLFR564 expression: 5.592
- OLFR782 expression: 5.74
- OLFR894 expression: 5.766
- PAPPA expression: 5.918
